This passage reports IC50 and EC50 results from paper PMC7887271, “Fast acting allosteric phosphofructokinase inhibitors block trypanosome glycolysis and cure acute African trypanosomiasis in mice” (Nature Communications, 2021).

The target in test [1] is T1, T. brucei phosphofructokinase (TbPFK) (Trypanosoma brucei brucei, UniProt O15648).
T1 construct: made in house; host or cells: Escherichia coli C41 (pET28a, codon optimised gene)
T1 sequence (O15648 1-487): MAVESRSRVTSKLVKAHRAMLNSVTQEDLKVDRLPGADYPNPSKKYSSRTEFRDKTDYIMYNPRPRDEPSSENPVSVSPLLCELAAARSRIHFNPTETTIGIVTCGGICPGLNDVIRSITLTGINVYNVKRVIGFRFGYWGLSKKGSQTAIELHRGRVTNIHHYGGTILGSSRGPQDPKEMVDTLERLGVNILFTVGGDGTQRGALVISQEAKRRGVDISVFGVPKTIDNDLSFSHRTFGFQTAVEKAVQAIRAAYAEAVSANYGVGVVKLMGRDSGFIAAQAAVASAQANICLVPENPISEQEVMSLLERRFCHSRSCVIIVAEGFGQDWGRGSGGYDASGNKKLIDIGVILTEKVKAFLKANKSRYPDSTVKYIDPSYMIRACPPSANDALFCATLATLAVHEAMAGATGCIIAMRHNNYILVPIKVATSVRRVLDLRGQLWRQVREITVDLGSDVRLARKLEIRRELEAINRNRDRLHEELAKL
Nature of the test: ADP-Glo assay for measuring PFK inhibition. Format: biochemical. As for the experimental part:
Parasite enzyme kinetic data were measured using N-terminally His6-tagged TbPFK expressed in Escherichia coli C41 cells, using a codon optimised gene inserted in a pET28a vector (Supplementary Methods 1). Recombinant human PFKs were expressed in PFK-deficient Saccharomyces cerevisiae. PFK enzyme inhibition was measured using an ADP-Glo^TM assay (Promega) in a 96-well plate format (Supplementary Methods 2.1), using a Spectramax© M5 Multimode Plate Reader to measure luminescence values which were converted to ADP concentrations. IC50 values were determined using a sigmoidal curve fitting algorithm in Kaleidagraph 4 (Supplementary Fig. 1). Mode of action studies were carried out using a linked enzyme assay coupling the forward reaction of TbPFK to the M1 isoform of human pyruvate kinase followed by lactate dehydrogenase. The change in UV absorbance at 340 nm resulting from the conversion of NADH to NAD^+ was measured at 25 °C in ‘kinetic mode’ on a Spectramax© M5 Multimode plate reader. Initial velocities were plotted against substrate concentration to give curves showing non-competitive inhibition (Supplementary Fig. 2). An alternative linked enzyme assay was developed to control for the potential inhibitory activity of ATP on human PFK (Supplementary Methods 2.3).
The ADP-Glo™ end-point assay kit manufactured by Promega (cat. No. V9102) was used to measure ADP produced in the phosphofructokinase reaction:
Following this kinase reaction, the addition of a reagent results in any unused background ATP being removed and the reaction is sequestered. A second reagent is then added to convert the remaining ADP to ATP which is coupled to the luciferase/luciferin reaction to produce light. ‘Ultrapure’ ATP and ADP from Promega were used to reduce background noise. All reagents additional to those provided in the Promega ADP-Glo™ kit were purchased from Sigma-Aldrich.
The assay buffer comprised 50 mM triethanolamine (TEA), 10 mM MgCl2, 5 mM KCl, 0.1% w/v bovine serum albumin (BSA), 0.005% Tween-20, 1% DMSO, pH 7.4. A 3-fold serial dilution of 250x inhibitor stocks was carried out in 100% DMSO. 2 µl of these dilutions was added to 198 µl assay buffer and mixed well using a multichannel pipette. […] Concentration ranges of inhibitor compounds were 40 - 0.006 µM (final concentration, 1% DMSO). The PFK reaction in the presence of inhibitor was carried out using 10 µl of 1 µg/ml PFK (final concentration 0.4 µg/ml) which was added to 10 µl of the 1% DMSO inhibitor compound serial dilutions in a white, non-binding 96-well plate (Greiner BioOne 655904). CTCB-001 was used as a positive control at a final concentration of 5 µM. Assay buffer containing 1% DMSO was added instead of inhibitor compound for the negative control. The protein/inhibitor mixture was incubated for 10 minutes at room temperature (RT). The kinase reaction was started by adding a 5x ATP/F6P stock in assay buffer (final concentrations 0.5 mM F6P and 0.1 mM ATP). Plates were then sealed, centrifuged at 560 x g for 30 seconds and incubated at RT for 30 minutes. 25 µl of ‘ADP-Glo™ Reagent’ was then added to each well, mixed using a multichannel pipette and incubated at room temperature for 40 minutes. 50 µl of ‘Kinase Detection Reagent’ was added and incubated for 50 minutes at RT. The luminescence was recorded using a Spectramax© M5 Multi-mode Plate Reader (Molecular Devices) in single-point mode, with an integration time of 750 milliseconds. The luminescence values were converted to ADP concentration using a standard calibration curve for ADP. The resulting ADP concentrations were plotted as a function of inhibitor compound concentration using Kaleidagraph 4.0 software. The data were analysed using non-linear regression and a sigmoidal curve was fitted (Supplementary Figure 1) to determine the IC50. Kaleidagraph 4.0 uses the Levenberg-Marquardt algorithm in an iterative procedure to fit non-linear curves. […] The slope of the curve at the midpoint (m4) was set to 1.
(ADP-Glo first removes unused ATP, then detects ADP through luciferase.)

The test system of test [2] is bloodstream form of T. brucei strain Lister 427. As to the kind of experiment: T. b. brucei 427 growth inhibition assay (LILiT, Alamar Blue). To be noted: Trypanosoma brucei, 72 h, read-out: EC50 (µM) in vitro parasite killing of bloodstream form T. brucei Lister 427 (Tbb EC50), 72 h, Alamar Blue. It is filed as cell-based. The method, then: The ‘in vitro’ parasite killing assay used the BSF of the non-human pathogenic subspecies T. b. brucei, strain Lister 427, cultured in HMI-9 medium containing 10% foetal bovine serum. A second cell line, T. b. brucei GVR35-Luc2 which constitutively expresses firefly luciferase was grown in Modified HMI-9 plus 20% foetal calf serum supplemented with 20% Serum Plus (Sigma) and 0.15 μg mL^−1 puromycin. Both strains of trypanosomes were cultured in T-25 vented cap flasks at 37 °C and 5% CO2.
The ‘in vitro’ parasite killing assay used the bloodstream-form of the non-human pathogenic subspecies T. b. brucei, strain Lister 427 (a gift from Professor Keith Matthews) which was cultured in HMI-9 medium containing 10% fetal bovine serum (FBS). A second cell line, T. b. brucei GVR35-Luc2 which constitutively expresses firefly luciferase (5) was grown in Modified HMI-9 plus 20% fetal calf serum (FCS) supplemented with 20% Serum Plus (Sigma) and 0.15 μg/ml puromycin as described previously (5). Both strains of trypanosomes were cultured in T-25 vented cap flasks at 37 °C and 5% CO2.
Growth inhibition tests of bloodstream-form T. b. brucei Lister 427 were carried out using the LILiT (long incubation low inoculation test) method (6). The parasites were cultured in complete HMI-9 medium containing 10% FBS in 96-well plates (Greiner Inc.) with approximately 2500 trypanosomes per well. A 3-fold dilution series (in the range from 45 µM – 0.020 µM) of the inhibitor compounds were prepared in the plate; the maximal concentration of DMSO was 0.45%. After 72 hours of incubation at 37 °C and 5% CO2, 50 µl Alamar Blue (0.2% diluted with Dulbecco’s-phosphate buffered saline (D-PBS, Sigma) was added to each well and plates were incubated at 37 °C and 5% CO2 for 4 hours. Fluorescence was read on the BMG multiplate reader using an excitation wavelength of 530 nm and an emission wavelength of 590 nm.

Test [3] concerns the target T2, TbPFK (Trypanosoma brucei brucei, UniProt O15648).
T2 construct: made in house; host or cells: Escherichia coli C41 (pET28a, codon optimised gene)
T2 sequence (O15648 1-487): T1 sequence (O15648 1-487)
To be noted: amidosulfonamide series; cited from earlier work.

The structures appear in SMILES notation. Values joined by “and” are separate entries in the source; they are usually repeats but may differ in a detail not shown here. Equal values may be shown once.

As for `O=C(Cc1ccc(Cl)c(Cl)c1)Nc1ccc(S(=O)(=O)Nc2ccon2)cc1` [CTCB-001], the IC50 in test [1] (Average IC50 (µM), source data for Fig. 2 and Table 1) was 0.25 µM; in test [1] (IC50 (µM), single dated measurement, source data), 194 nM (2×) and 221 nM and 189 nM and 230 nM and 436 nM and 223 nM and 261 nM (2×); in test [3], around 200 nM. The EC50 in test [2] came out at 20.2 ± 2.1 µM.

Usually IC50 stands for the concentration at which inhibition is half-maximal. For orientation: EC50 means the midpoint of the concentration-response curve.
